Measured values taken from the supplement of paper PMC10307832.

Tests used:
Assay in all cases: relative viability (nuclei count vs DMSO), 5 days (fraction); higher = more cells survive
XMD13-2 + Phenformin = compound: C1CC1C(=O)NC2=NNC3=C2C=CC(=C3)C4=CC(=CC=C4)C(=O)NC5CC5 [XMD13-2] + N=C(N)NC(=N)NCCc1ccccc1 [Phenformin] (partner 250 µM)
Outline: (§1)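 Five library-drug doses in √10 steps were combined with a fixed anchor-drug dose, or a single drug was given alone, by pin tool to lung cancer cell lines in 1536-well plates the day after seeding. Nuclei were stained and counted after 5 days. Relative viability is the nuclei count in treated wells over that in vehicle wells, taken as the median of duplicate plates.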

ALW-II-49-7 + AZD7762 = compound: Cc1ccc(C(=O)Nc2cccc(C(F)(F)F)c2)cc1Nc1cncc(C(N)=O)c1 [ALW-II-49-7] + NC(=O)Nc1cc(-c2cccc(F)c2)sc1C(=O)N[C@H]1CCCNC1 [AZD7762] (partner 0.2 µM)
Outline: as §1

XMD13-2 + Lapatinib = compound: C1CC1C(=O)NC2=NNC3=C2C=CC(=C3)C4=CC(=CC=C4)C(=O)NC5CC5 [XMD13-2] + CS(=O)(=O)CCNCc1ccc(-c2ccc3ncnc(Nc4ccc(OCc5cccc(F)c5)c(Cl)c4)c3c2)o1 [Lapatinib] (partner 2 µM)
Outline: as §1

[1] = compound: Cc1ccc(C(=O)Nc2cccc(C(F)(F)F)c2)cc1Nc1cncc(C(N)=O)c1 [ALW-II-49-7] + CC(=O)c1c(C)c2cnc(Nc3ccc(N4CCNCC4)cn3)nc2n(C2CCCC2)c1=O [Palbociclib] (partner 0.5 µM)
Outline: as §1

Row | Cell Line | relative viability (XMD13-2 + Phenformin; first compound 0.05 µM) | relative viability (XMD13-2 + Phenformin; first compound 0.1581 µM) | relative viability (XMD13-2 + Phenformin; first compound 0.5 µM) | relative viability (XMD13-2 + Phenformin; first compound 1.581 µM) | relative viability (XMD13-2 + Phenformin; first compound 5 µM) | relative viability (ALW-II-49-7 + AZD7762; first compound 0.08 µM) | relative viability (ALW-II-49-7 + AZD7762; first compound 0.253 µM) | relative viability (ALW-II-49-7 + AZD7762; first compound 0.8 µM) | relative viability (ALW-II-49-7 + AZD7762; first compound 2.53 µM) | relative viability (ALW-II-49-7 + AZD7762; first compound 8 µM) | relative viability (XMD13-2 + Lapatinib; first compound 0.05 µM) | relative viability (XMD13-2 + Lapatinib; first compound 0.1581 µM) | relative viability (XMD13-2 + Lapatinib; first compound 0.5 µM) | relative viability (XMD13-2 + Lapatinib; first compound 1.581 µM) | relative viability (XMD13-2 + Lapatinib; first compound 5 µM) | relative viability ([1]; first compound 0.08 µM) | relative viability ([1]; first compound 0.253 µM) | relative viability ([1]; first compound 0.8 µM) | relative viability ([1]; first compound 2.53 µM) | relative viability ([1]; first compound 8 µM)
1 | PC-3 [JPC-3] | 0.5 | 0.49 | 0.48 | 0.523 | 0.54 | 0.738 | 0.735 | 0.68 | 0.801 | 0.672 | 0.453 | 0.467 | 0.437 | 0.498 | 0.426 | 0.536 | 0.595 | 0.546 | 0.561 | 0.558
2 | HCC-44 | 0.217 | 0.161 | 0.213 | 0.269 | 0.183 | 0.992 | 1.02 | 1.03 | 1.03 | 0.964 | 1.01 | 1.12 | 1.08 | 0.957 | 0.771 | 0.961 | 1.02 | 0.972 | 0.871 | 0.864
3 | NCI-H2405 | 0.436 | 0.417 | 0.411 | 0.397 | 0.438 | 0.746 | 0.808 | 0.553 | 0.645 | 0.485 | 1.18 | 1 | 0.95 | 0.957 | 1.09 | 0.507 | 0.591 | 0.488 | 0.532 | 0.468
4 | LXF-289 | 0.538 | 0.536 | 0.561 | 0.551 | 0.527 | 1.08 | 1.11 | 0.981 | 1.26 | 1.22 | 0.923 | 0.901 | 0.905 | 0.897 | 0.834 | 0.529 | 0.682 | 0.625 | 0.709 | 0.674
5 | LOU-NH91 | 0.83 | 0.663 | 0.732 | 0.582 | 0.867 | 0.567 | 0.774 | 0.782 |  | 0.596 | 0.809 | 0.758 | 0.725 | 0.713 | 0.746 | 0.484 | 0.526 | 0.517 |  | 0.564
6 | A549 | 0.547 | 0.152 | 0.153 | 0.12 | 0.232 |  |  |  |  |  | 1.2 | 0.974 | 0.938 | 0.811 | 0.891 |  |  |  |  | 
7 | H3255 | 0.21 | 0.378 | 0.409 | 0.364 | 0.358 | 0.938 | 1.06 | 0.874 | 0.801 | 0.574 | 0.444 | 0.223 | 0.297 | 0.199 | 0.201 | 0.309 | 0.314 | 0.322 | 0.28 | 0.295
8 | NCI-H1395 | 0.449 | 0.446 | 0.435 | 0.429 | 0.45 | 0.381 | 0.43 | 0.364 |  | 0.362 | 1.56 | 0.997 | 1.08 | 0.908 | 0.945 | 0.583 | 0.689 | 0.691 |  | 0.495
9 | LC-2-ad | 0.586 | 0.584 | 0.669 | 0.546 | 0.528 | 0.844 | 0.824 | 0.756 | 0.805 | 0.93 | 1.01 | 1.06 | 0.971 | 0.885 | 0.855 | 0.455 | 0.488 | 0.435 | 0.506 | 0.526
10 | NCI-H838 | 0.663 | 0.538 | 0.65 | 0.544 | 0.632 | 0.921 | 1.04 | 0.889 | 0.702 | 0.886 | 1.17 | 1.14 | 1.13 | 1.03 | 0.959 | 0.246 | 0.225 | 0.203 | 0.232 | 0.191
11 | Calu-6 |  |  |  |  |  |  |  |  |  |  | 1.18 | 0.93 | 1.11 | 0.983 | 0.736 |  |  |  |  | 
12 | NCI-H1648 |  |  |  |  |  | 0.62 | 0.697 | 0.74 | 0.678 | 0.618 |  |  |  |  |  | 0.241 | 0.251 | 0.264 | 0.246 | 0.251
13 | LCLC-97TM1 | 0.441 | 0.441 | 0.425 | 0.492 | 0.459 | 0.228 | 0.418 | 0.328 | 0.156 | 0.179 | 1.19 | 0.693 | 1.23 | 0.75 | 0.825 | 0.198 | 0.215 | 0.214 | 0.188 | 0.235
14 | NCI-H2023 | 0.561 | 0.434 | 0.399 | 0.428 | 0.426 |  |  |  |  |  | 0.932 | 0.739 | 0.835 | 0.724 | 0.3 | 0.325 | 0.344 | 0.36 | 0.4 | 0.428
15 | NCI-H2342 | 0.567 | 0.602 | 0.597 | 0.642 | 0.651 | 0.506 | 0.498 | 0.419 | 0.408 | 0.484 |  |  |  |  |  | 0.496 | 0.541 | 0.515 | 0.499 | 0.488
16 | SW 1573 | 0.443 | 0.385 | 0.384 | 0.26 | 0.24 |  |  |  |  |  | 1.13 | 1.2 | 1.28 | 1.06 | 1.1 | 0.347 | 0.489 | 0.373 | 0.347 | 0.319
